From US20130102595A1 (Curis, Inc., priority 2011, published 2013)
pIC50: −log10 of the molar value.

Assays:
CaPan1 = test: Cell proliferation assay (CellTiter-Glo); assay type: cell-based; settings: Homo sapiens, CAPAN-1; Pancreas; 72 hours, 0.5% fetal bovine serum; read-out: antiproliferative activity IC50, CaPan1
Method in brief: (§1)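 Luminescent ATP quantitation after 30 minutes of lysis served as the growth-inhibition read-out. Before this, cells (5,000 to 10,000 per well) were incubated for 72 hours with varying compound concentrations under low-serum conditions (0.5% fetal bovine serum).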

A549 = test: Cell proliferation assay (CellTiter-Glo); assay type: cell-based; settings: Homo sapiens, NSCLC, 72 hours, 0.5% fetal bovine serum, read-out: antiproliferative activity IC50, A549
Method in brief: as §1

H2122 = test: Cell proliferation assay (CellTiter-Glo); assay type: cell-based; settings: Homo sapiens, NCI-H2122; NSCLC; 72 hours, 0.5% fetal bovine serum; read-out: antiproliferative activity IC50, H2122
Method in brief: as §1

H358 = test: Cell proliferation assay (CellTiter-Glo); assay type: cell-based; settings: Homo sapiens, NCI-H358; NSCLC; 72 hours, 0.5% fetal bovine serum; read-out: antiproliferative activity IC50, H358
Method in brief: as §1

OPM-2 = test: Cell proliferation assay (CellTiter-Glo); assay type: cell-based; settings: Homo sapiens, Multiple Myeloma, 72 hours, 0.5% fetal bovine serum, read-out: antiproliferative activity IC50, OPM-2
Method in brief: as §1

SW620 = test: Cell proliferation assay (CellTiter-Glo); assay type: cell-based; settings: Homo sapiens, SW-620; Colon; 72 hours, 0.5% fetal bovine serum; read-out: antiproliferative activity IC50, SW620
Method in brief: as §1

SWI-116 = test: Cell proliferation assay (CellTiter-Glo); assay type: cell-based; settings: Colon; 72 hours, 0.5% fetal bovine serum; read-out: antiproliferative activity IC50, SWI-116
Method in brief: as §1

T-84 = test: Cell proliferation assay (CellTiter-Glo); assay type: cell-based; settings: Homo sapiens, T84; Colon; 72 hours, 0.5% fetal bovine serum; read-out: antiproliferative activity IC50, T-84
Method in brief: as §1

LN-Cap = test: Cell proliferation assay (CellTiter-Glo); assay type: cell-based; settings: Homo sapiens, LNCaP; Prostate; 72 hours, 0.5% fetal bovine serum; read-out: antiproliferative activity IC50, LN-Cap
Method in brief: as §1

OVCAR-5 = test: Cell proliferation assay (CellTiter-Glo); assay type: cell-based; settings: Homo sapiens, Ovarian, 72 hours, 0.5% fetal bovine serum, read-out: antiproliferative activity IC50, OVCAR-5
Method in brief: as §1

PC-3 = test: Cell proliferation assay (CellTiter-Glo); assay type: cell-based; settings: Homo sapiens, Prostate, 72 hours, 0.5% fetal bovine serum, read-out: antiproliferative activity IC50, PC-3
Method in brief: as §1

SMILES	pIC50 (CaPan1)	melting point [°C]	pIC50 (A549)	pIC50 (H2122)	pIC50 (H358)	pIC50 (OPM-2)	pIC50 (SW620)	pIC50 (SWI-116)	pIC50 (T-84)	pIC50 (LN-Cap)	pIC50 (OVCAR-5)	pIC50 (PC-3)
CN(Cc1cc2nc(-c3cccc4[nH]ncc34)nc(N3CCOCC3)c2s1)c1ncc(C(=O)NO)cn1 [Compound 54, 2-(((2-(1H-indazol-4-yl)-4-morpholinothieno[3,2-d]pyrimidin-6-yl)methyl)(methyl)amino)-N-hydroxypyrimidine-5-carboxamide]	7.00 to 8.00	197 to 200										
CNc1ccc(-c2nc(N3CCOCC3)c3sc(CN(C)c4ncc(C(=O)NO)cn4)cc3n2)cn1 [Compound 111, N-Hydroxy-2-(methyl((2-(6-(methylamino)pyridin-3-yl)-4-morpholinothieno[3,2-d]pyrimidin-6-yl)methyl)amino)pyrimidine-5-carboxamide]			7.00 to 8.00	> 8.00	> 8.00	> 8.00	> 8.00	> 8.00	7.00 to 8.00			
CN(Cc1cc2nc(-c3ccc(N)cc3)nc(N3CCOCC3)c2s1)c1ncc(C(=O)NO)cn1 [Compound 150, 2-(((2-(4-aminophenyl)-4-morpholinothieno[3,2-d]pyrimidin-6-yl)methyl)(methyl)amino)-N-hydroxypyrimidine-5-carboxamide]	6.00 to 7.00		> 8.00	> 8.00	> 8.00	> 8.00	> 8.00	> 8.00	7.00 to 8.00	> 8.00	> 8.00	7.00 to 8.00
